Laboratory results: publication PMC3871595, “Structure Based Identification and Characterization of Flavonoids That Disrupt Human Papillomavirus-16 E6 Function” (PLoS ONE, 2013)
Entries after “also recorded” stand apart in the source; their conditions may differ.

How the values were obtained:
MBP-E6 = biological target: T1, MBP-E6 (Human papillomavirus type 16, UniProt P03126); assay: thermal shift (Sypro Orange) assay; assay type: binding, HPV-16; settings: versus DMSO; for effect on Tm of MBP-E6: 5-150 µM tested
T1 construct: made in house; host or cells: E. coli BL21DE(3)
Experimental: A thermal shift assay was used to assess compound binding to HPV E6. In this reaction, protein denaturation is measured by an increase in fluorescence from Sypro Orange as it binds to the newly exposed hydrophobic surfaces on the protein [48]. A protein stability curve is created as a measure of the rate of protein unfolding. The relative fluorescence is plotted against temperature and the melting temperature (Tm) is determined by calculating the temperature of peak fluorescence. Ligand binding can stabilize the protein and increase the Tm. The thermal profile of MBP-E6 proteins was investigated to determine if the flavonoid derivatives could stabilize MBP-E6 protein structure during heat-induced unfolding. […] The change in Tm (∆Tm) was plotted for each compound and compared to DMSO (Figure 10F,G ).
MBP-16E6 DNA, a kind gift from G. Travé [58], was transformed into BL21DE(3) E. coli. Protein expression was performed by inoculation of a 1 mL starter culture in 100 mL of Turbo-Broth containing 0.2 % lactose, 0.05% glucose and 0.6% glycerol at 20°C for 24 hrs. Cells were lysed in 50 mM Tris HCl pH 6.8, 300 mM NaCl, 0.1 % (v/v) NP-40, 2 mM DTT and 1x protease inhibitor cocktail (EDTA-free, Roche) and sonicated as described before. Cell lysate was cleared by centrifugation at 15000xg, 4°C for 30 min and equilibrated with amylose resin beads (New England Biolabs, Inc.) by inversion for 3 hrs at 4°C. Bound beads were washed one time in lysis buffer and four times with wash buffer (50 mM Tris-HCl pH 6.8, 400 mM NaCl, 2 mM DTT, 1x protease inhibitor cocktail). Bound MBP-E6 proteins were eluted using a final concentration of 20 mM maltose in 5 bed volumes of wash buffer. All steps were performed at 4°C. Protein concentration was measured by BCA (BioRad). Thermostability of MBP-E6 proteins was analyzed at a final concentration of 1 µM in reaction buffer (50 mM TrisHCl pH 6.8, 400 mM NaCl, 2 mM DTT). MBP-E6 proteins were equilibrated with CAF-8 (5 µM-150 µM), CAF-24 (5 µM-150 µM), CAF-26 (5 µM-150 µM) or DMSO for 30 min in reaction buffer. Sypro Orange, a hydrophobic fluorescent dye, was added at the end of the incubation period at a final concentration of 5X. The final DMSO concentration (1.8% v/v) was kept constant across the concentration range. Fluorescence was measured using the FRET channel of CFX96 Real-Time PCR thermal cycler (BioRad) over a temperature range of 25°C to 95°C. Temperature increments were set to 0.5°C for 30 sec followed by plate reading. Melt curves were determined in triplicate and repeated four times. Melt curves represent the relative fluorescence of the 1st derivative of four experiments. Melting temperature (Tm) was calculated by CFX manager software. The average melting temperature of the triplicate was used to calculate the ∆Tm for each experiment. ∆Tm values are expressed as the change vs. DMSO.

[1] = tested on: HPV-16 E6 mediated p53 degradation; assay: in vitro HPV-16 E6 mediated p53 degradation assay; assay type: biochemical
Experimental: In vitro expressed p53 was incubated in rabbit reticulocyte lysate in the presence or absence of in vitro expressed HPV16 E6. p53 levels were reduced in reaction containing E6 proteins (Figure 8 ).
Control reactions (no DNA, p53 alone) were incubated with 1 µL wheat germ extract and 2% DMSO in reaction buffer. In vitro translated p53 and rabbit reticulocyte lysate (RRL, Promega) were added to all reactions except the no DNA control reaction to which wheat germ extract was added instead of p53. Reactions were incubated for 3 hrs at 30°C and stopped by addition of 6X reducing SDS sample buffer and heating at 95°C for 5 min. Each reaction was loaded onto a 10% SDS-PAGE gel and transferred onto PVDF (0.45 µm). p53 and 16E6 were visualized using monoclonal p53 (Pab1801, 1:1000), monoclonal 16E6 (813, Arbor Vita Corporation, 1:4000) antibody and anti-mouse HRP-labeled secondary antibody (1:2000, Sigma-Aldrich).

Caski cells = assay: p53/p21 immunoblot analysis in Caski cells; assay type: cell-based, human; settings: 40 hours
Experimental: Caski cells, which are derived from an HPV-16 infected cervical carcinoma and express HPV-16 E6 and E7, were used to determine whether these compounds interfere with HPV-16 E6 function. Inhibition of E6 should block its ability to promote the degradation of p53 thereby increasing the levels of p53. […] These compounds were also assayed in telomerase immortalized human retinal epithelial cells (RPE-1). […] If the elevation in p53 is dependent on the inhibition of E6 by these compounds, p53 should not increase in the RPE-1 cells.
20,000 cells per cm^2 were plated in 6-well dishes. Cells were incubated for 24 hours at which time fresh media and compound were added. After 40 hours, cells were harvested, washed with cold PBS, and lysed in RIPA buffer with protease inhibitor. Each sample was separated on a 12% SDS-page gel, transferred to Immobilon-P membrane (Millipore) and blotted for the p53 (DO-1, Santa Cruz), p21 (c-19, Santa Cruz), and actin (A2066, Sigma). Protein quantification was performed with the Fujifilm LAS-4000 Multifunctional Imaging System. The signal intensity was measured for each band on an immunoblot, normalized to the loading control, and the fold increase was determined in relation to the appropriate DMSO treated control. RNA was isolated from these cells using Trizol Reagent (Invitrogen 15596-026). cDNA was generated using the Improm-II Reverse Transcription System (Promega A3801). qPCR was performed as described in the protocol for SsoFast EvaGreen supermix (BioRad 172-5023) using an BioRad CFX96 real-time PCR machine. Melting curves for each reaction were obtained. Each sample was assayed in triplicate and every plate contained a 5-point cDNA dilution course to calculate amplification efficiency for each primer pair. The Pfaffl method was used to determine the change in transcript levels relative to the DMSO and normalized to GAPDH.

caspases 3 and 7 = assay: Caspase-Glo 3/7 apoptosis assay; assay type: cell-based, human; settings: 4 – 48 hours
Experimental: This was specific to Caski cells and was not observed in RPE-1, HeLa cells, or the HPV negative control cell lines C33a and HaCat (Figures S2A,B ). […] As observed in the viability assay, this occurred in both the HPV positive and negative cell lines. […] These cell lines were also assayed for apoptosis.
For cell viability, 12,000 cells per cm^2 were plated in 96-well dishes 24 hours prior to drug addition. Fresh media and compound were added. Plates were read after 72-96 hours. Relative cell viability was assayed as directed in the Celltiter 96 AQueous one solution assay (Promega). For caspase activity, plates were assayed after 4, 8, 12, 24, or 48 hours as described for the Caspase-Glo 3/7 assay (Promega).

[2] = 100 µM compound pre-incubated with E6

T1 sequence (P03126 whole entry): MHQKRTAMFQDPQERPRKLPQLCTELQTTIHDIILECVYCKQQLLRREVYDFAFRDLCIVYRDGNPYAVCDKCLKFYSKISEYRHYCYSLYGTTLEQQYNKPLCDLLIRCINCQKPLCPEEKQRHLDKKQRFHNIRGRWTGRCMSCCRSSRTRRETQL

Row | SMILES | effect on Tm of MBP-E6 (MBP-E6) | effect on E6 mediated p53 degradation [1, 2] | p21^Cip1/Waf1 protein levels (Caski cells) | p53 protein levels (Caski cells) | caspase 3 and 7 activity (caspases 3 and 7) | shift of MBP-E6 Tm (MBP-E6; at 25, 50 and 150 µM) [°C] | effect on E6 mediated p53 degradation ([1]; 10 µM compound pre-incubated with E6)
1 | O=c1cc(-c2ccc(O)c(O)c2)oc2cc(O)cc(O)c12 [luteolin, reference compound] | no effect on the Tm of MBP-E6; also recorded: did not shift the Tm of MBP-E6 | decrease in p53 was not observed | concomitant induction | increased p53 levels | did not observe increased caspase activity |  | 
2 | COc1cccc(-c2cc(=O)c3cc(-c4nnn[nH]4)ccc3o2)c1 [CAF-24] | about 1 °C | stabilized p53 | concomitant induction | increased p53 levels | did not observe increased caspase activity | ~1 | stabilized p53
